Assay results from PubChem BioAssay AID1918933 (Molecular Pharmacology Branch, DTP, NCI, 2023).
Where “and” joins values, the source holds several entries; their conditions need not be identical. Identical values can stand only once.

Tested on: 186277-243-T-J2-PDC complex spheroid viability
Assay: Anticancer human tumor 186277-243-T-J2-PDC patient-derived colon adenocarcinoma cell line growth inhibition
Conditions: for viability, T/C: stronger effect = lower value
Summary of the method: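 Complex spheroids of tumor cells with HUVEC and human MSCs, exposed to iadademstat combined with other agents. Each agent tested in half-log steps from near clinical Cmax (else 10 microM top), DMSO ≤0.25%.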

[1] = curve of first compound, second compound 0.1 µM
[2] = curve of first compound, second compound 0.316 µM
[3] = curve of first compound, second compound 1 µM
[4] = curve of first compound, second compound 3.16 µM
[5] = curve of first compound, second compound 10 µM
[6] = second compound 0.1 µM, first compound 0.00316 µM
[7] = second compound 0.1 µM, first compound 0.01 µM
[8] = second compound 0.1 µM, first compound 0.0316 µM
[9] = second compound 0.1 µM, first compound 0.1 µM
[10] = second compound 0.316 µM, first compound 0.00316 µM
[11] = second compound 0.316 µM, first compound 0.01 µM
[12] = second compound 0.316 µM, first compound 0.0316 µM
[13] = second compound 0.316 µM, first compound 0.1 µM
[14] = second compound 1 µM, first compound 0.00316 µM
[15] = second compound 1 µM, first compound 0.01 µM
[16] = second compound 1 µM, first compound 0.0316 µM
[17] = second compound 1 µM, first compound 0.1 µM
[18] = second compound 3.16 µM, first compound 0.00316 µM
[19] = second compound 3.16 µM, first compound 0.01 µM
[20] = second compound 3.16 µM, first compound 0.0316 µM
[21] = second compound 3.16 µM, first compound 0.1 µM
[22] = second compound 10 µM, first compound 0.00316 µM
[23] = second compound 10 µM, first compound 0.01 µM
[24] = second compound 10 µM, first compound 0.0316 µM
[25] = second compound 10 µM, first compound 0.1 µM
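Note: 7 day exposure to compounds.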
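Throughout, for viability, T/C: 100% = DMSO vehicle control viability.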

Structure (SMILES) | IC50 [1] [nM] | IC50 [2] [nM] | IC50 [3] [nM] | IC50 [4] [nM] | IC50 [5] [nM] | viability, T/C [6] [%] | viability, T/C [7] [%] | viability, T/C [8] [%] | viability, T/C [9] [%] | viability, T/C [10] [%] | viability, T/C [11] [%] | viability, T/C [12] [%] | viability, T/C [13] [%] | viability, T/C [14] [%] | viability, T/C [15] [%] | viability, T/C [16] [%] | viability, T/C [17] [%] | viability, T/C [18] [%] | viability, T/C [19] [%] | viability, T/C [20] [%] | also measured
CC1(C)CCC(CN2CCN(c3ccc(C(=O)NS(=O)(=O)c4ccc(NCC5CCOCC5)c([N+](=O)[O-])c4)c(Oc4cnc5[nH]ccc5c4)c3)CC2)=C(c2ccc(Cl)cc2)C1 |  |  |  |  |  |  |  |  |  |  |  |  |  |  |  |  |  |  |  |  | viability, T/C (compound 0.0316 µM): 100% and 109%; viability, T/C (compound 0.1 µM): 108% and 90.4%; viability, T/C (compound 0.316 µM): 93% and 94.6%; viability, T/C (compound 1 µM): 95.7% and 97.7%; viability, T/C (compound 3.16 µM): 52.1% and 28.3%; viability, T/C (compound 10 µM): 8.65% and 0.19%; IC50 (curve of compound): 3360 nM and 2210 nM
CC(C)CC(NC(=O)CNC(=O)c1cc(Cl)ccc1Cl)B1OC(=O)CC(CC(=O)O)(C(=O)O)O1 (configuration not stated) + NC1CC1c1ccc(-c2cccc(O)c2)cc1 | 10.5 | 11 | 10.7 | 10.6 | 7.75 | 111 | 51.9 | 6.34 | 0.22 | 111 | 54.3 | 1.86 | 0.17 | 116 | 53.2 | 1.62 | 0.2 | 110 | 52.6 | 1.26 | viability, T/C (second compound 0.1 µM, first compound 0.000316 µM): 110%; viability, T/C (second compound 0.1 µM, first compound 0.001 µM): 95.8%; viability, T/C (second compound 0.316 µM, first compound 0.000316 µM): 110%; viability, T/C (second compound 0.316 µM, first compound 0.001 µM): 111%; viability, T/C (second compound 1 µM, first compound 0.000316 µM): 110%; viability, T/C (second compound 1 µM, first compound 0.001 µM): 111%; viability, T/C (second compound 3.16 µM, first compound 0.000316 µM): 111%; viability, T/C (second compound 3.16 µM, first compound 0.001 µM): 117%; viability, T/C [21]: 0.43%; viability, T/C (second compound 10 µM, first compound 0.000316 µM): 117%; viability, T/C (second compound 10 µM, first compound 0.001 µM): 114%; viability, T/C [22]: 100%; viability, T/C [23]: 36.1%; viability, T/C [24]: 0.83%; viability, T/C [25]: 0.22%
CC1COCCN1c1cc(-c2ccnn2C)c2ccnc(-c3ccn[nH]3)c2n1 (configuration not stated) + NC1CCC(NC2CC2c2ccccc2)CC1 | 6.56 | 6.04 | 5.63 | 6.34 | 5.91 | 84.2 | 30.2 | 10.9 | 9.28 | 74.5 | 30.9 | 10.2 | 8.48 | 69.3 | 30.8 | 11.1 | 8.48 | 79.9 | 30.4 | 10.4 | viability, T/C (second compound 0.1 µM, first compound 0.316 µM): 10%; viability, T/C (second compound 0.1 µM, first compound 1 µM): 11.5%; viability, T/C (second compound 0.316 µM, first compound 0.316 µM): 9.85%; viability, T/C (second compound 0.316 µM, first compound 1 µM): 11.8%; viability, T/C (second compound 1 µM, first compound 0.316 µM): 9.78%; viability, T/C (second compound 1 µM, first compound 1 µM): 12.1%; viability, T/C [21]: 8.64%; viability, T/C (second compound 3.16 µM, first compound 0.316 µM): 9.76%; viability, T/C (second compound 3.16 µM, first compound 1 µM): 12%; viability, T/C [22]: 71.8%; viability, T/C [23]: 31.6%; viability, T/C [24]: 11%; viability, T/C [25]: 9.23%; viability, T/C (second compound 10 µM, first compound 0.316 µM): 9.95%; viability, T/C (second compound 10 µM, first compound 1 µM): 11.8%
